According to paper PMC6736730 (Biochemistry, 2019):

Experiments:
msAPAH [1] = target: T1, msAPAH (Marinobacter subterrani, UniProt A0A0J7JFD7); assay: Hydrolysis of acetyllysine substrates; assay type: biochemical; details: acetyllysine (Aly) and MSH2-based peptide substrates; LC-MS assay
msAPAH [2] = target: T1, msAPAH; assay: Isothermal titration calorimetry; assay type: binding; details: ITC, 25 °C; inhibitor 7 with 5% (v/v) DMSO
msAPAH [3] = target: T1, msAPAH; assay: Inhibitory activity measurements; assay type: biochemical
msAPAH [4] = target: T1, msAPAH; assay: Steady-state kinetics of acetylpolyamine hydrolysis; assay type: biochemical; details: 25° C, pH 7.75, triplicate; N^8-acetylspermidine value at 0 mM KCl

**Q.** How did the “catalytic activity for hydrolysis” value (msAPAH [1]) turn out when `CC(=O)NCCCC[C@H](N)C(N)=O` [Aly-NH2] was run?
**A.** No significant catalytic activity

**Q.** Which “dissociation constant / enthalpogram fit (in words)” value (msAPAH [2]) does the source give for `NCCCNCCCCCS` [Inhibitor 3, 5-[(3-aminopropyl)amino]pentane-1-thiol] here?
**A.** nanomolar dissociation constant

**Q.** And the IC50 (msAPAH [3])?
**A.** 160 µM

**Q.** Which IC50 (msAPAH [3]) does the source give for `NCCCCCC(=O)NO` [Inhibitor 4, 6-amino-N-hydroxyhexanamide] here?
**A.** 410 µM

**Q.** How did the IC50 (msAPAH [3]) turn out when `NCCCCCCCC(=O)NO` [Inhibitor 5, 8-amino-N-hydroxyoctanamide] was run?
**A.** 380 µM

**Q.** For `NCCCNCCCCCC(=O)NO` [Inhibitor 6, 6-[(3-aminopropyl)amino]-N-hydroxyhexanamide], which “dissociation constant / enthalpogram fit (in words)” value (msAPAH [2]) is on record?
**A.** micromolar dissociation constants

**Q.** What about the IC50 (msAPAH [3]) of the same compound?
**A.** 470 µM

**Q.** For `CN(C)c1ccc(C(=O)NCCCCCCC(=O)NO)cc1` [Inhibitor 7, reference compound], which “dissociation constant / enthalpogram fit (in words)” value (msAPAH [2]) is on record?
**A.** could not be fit to binding curves

**Q.** `CC(=O)NCCCCCN` [acetylcadaverine] was tested. Which Km (msAPAH [4]) did it give?
**A.** 800 ± 300 µM

**Q.** Which Km (msAPAH [4]) does the source give for `CC(=O)NCCCCN` [acetylputrescine] here?
**A.** 44 ± 10 µM

**Q.** Which Km (msAPAH [4]) does the source give for `CC(=O)NCCCNCCCCNCCCN` [acetylspermine] here?
**A.** 1300 ± 600 µM
